This is an account of results in patent US7531500B2, “Preventing airway mucus production by administration of EGF-R antagonists” (The Regents of the University of California, priority 1998, dated 2009).

What all share (format): cell-based, human
The subject of test [1] is NCI-H292 cells. Description: MUC5AC mRNA and protein in NCI-H292 cells incubated with cigarette smoke solution (Example 7). To be noted: within 6 hours, increased at 12 hours. The method, then:
NCI-H292 cells, a human pulmonary mucoepidermoid carcinoma cell line, were grown in RPMI 1640 medium containing 10% fetal bovine serum, penicillin (100 U/ml), streptomycin (100 μg/ml) and Hepes (25 mM) at 37° C. in a humidified 5% CO2 water-jacketed incubator. Either 6-well culture plates or 8-chamber slides were used to culture the cells. When confluent, cells were incubated for 1 hour with cigarette smoke solution. The cells were then washed and incubated with fresh medium alone. Experiments were terminated at preselected times (for mRNA, 6 hours and 12 hours; for protein, 24 hours). As controls, cells were incubated with medium alone for same time periods. […] The effects of a selective inhibitor of platelet-derived growth factor receptor tyrosine kinase (tyrphostin AG1295, 100 μM, Calbiochem), and a negative control for tyrphostins (tyrphostin A1, 100 μM, Calbiochem) were also examined. The role of reactive oxygen species was examined using a scavenger of oxygen free radicals DMSO (1%, Sigma), or superoxide dismutase (SOD, 300 U/ml, Sigma).
In situ hybridization was performed using a human EGFR probe, which contains a 350-bp cDNA fragment of the human EGFR gene (pTRI-EGFR-human probe template, Ambion, Austin, Tex.) and a human MUC5AC probe, which contains a 298-bp cDNA fragment of the human MUC5AC gene, The 350-bp cDNA human EGFR was subcloned into pBluescript II SK-vector at Kpn I and EcoR I sites. This pBluescript was used to generate human EGFR antisense and sense probes. Hybridization was performed as described previously. Lou et al. (1998) Am. J. Respir. Crit. Care Med. 157:1927-1934. In brief, the cells grown on the 8-chamber slides were fixed in 4% paraformaldehyde, rehydrated in 0.5×SSC, and then acetylated in triethanolamine and acetic anhydride. Hybridization was carried out with 2500-4000 cpm/μl of antisense or sense probe in 50% deionized formamide, 0.3 M NaCl, 20 mM Tris, 5 mM EDTA, 1× Denhardt's solution, 20 mM dithiothreitol, 10% dextran sulfate, 0.5 mg/ml yeast tRNA, and 0.5 mg/ml sonicated salmon sperm DNA at 58° overnight. Posthybridization treatment consisted of washes with 2×SSC, 1 mM EDTA, 10 mM β-mercaptoethanol at room temperature, incubation with RNase solution (20 μg/ml) for 30 min at room temperature, and further washes in 0.1×SSC, 1 mM EDTA, 10 mM β-mercaptoethanol at 55° C. for 2 hours and then in 0.5×SSC at room temperature for 20 minutes. Specimens were dehydrated, air-dried, and covered with Kodak NBT nuclear track emulsion (Eastman Kodak, Rochester, N.Y.) for autoradiography. After exposure for 7 to 21 days at 4° C., the slides were developed, fixed, and counterstained with hematoxylin.
MUC5AC protein was measured as described previously. Takeyama et al. (1999) Proc. Natl. Acad. Sci. USA 96:3081-3086. In brief, cell lysates were prepared with PBS at multiple dilutions, and 50 μl of each sample was incubated with bicarbonate-carbonate buffer (50 μl) at 40° C. in a 96-well plate (Maxisorp Nunc, Fisher Scientific, Santa Clara, Calif.), until dry. Plates were washed three times with PBS and blocked with 2% bovine serum albumin, fraction V (Sigma) for 1 hour at room temperature. Plates were again washed three times with PBS and then incubated with 50 μl of MUC5AC mAb (1:1 00) that was diluted with PBS containing 0.05% Tween 20. After 1 hour, the wells were washed three times with PBS, and 100 μl horseradish peroxidase-goat anti-mouse IgG conjugate (1:10,000) was dispensed into each well. After 1 hour, plates were washed three times with PBS. Color reaction was developed with 3,3′,5,5′-tetramethylbenzidine (TMB) peroxidase solution (Kirkegaard & Perry Laboratories, Gaithersburg, Md.) and stopped with 2N H2S04. Absorbance was read at 450 nm.

Test [2] deals with NCI-H292 cells. Description: In situ hybridization for MUC5AC gene in NCI-H292 cells (Example 2). To be noted: within 12 h. The method, then: Cell Culture. NCI-H292 cells, a human pulmonary mucoepidermoid carcinoma cell line, were grown in RPMI 1640 medium containing 10% fetal bovine serum, penicillin (100 U/ml), streptomycin (100 μg/ml) and Hepes (25 mM) at 37° C. in a humidified 5% CO2, water-jacketed incubator. Either 6-well culture plates or 8-chamber slides were used to culture the cells. When confluent, cells were incubated for 1 h with neutrophils (10^6 cells/ml) alone, TNFα alone (recombinant human TNFα, 20 ng/ml, Genzyme, Cambridge, Mass.), IL-8 (recombinant human IL-8, 10^−8 M, Genzyme) alone, fMLP (10^−8 M, Sigma, St. Louis, Mo.) alone, TNFα plus neutrophils, IL-8 plus neutrophils, fMLP plus neutrophils, hydrogen peroxide (H2O2, 200 μM), cigarette smoke solution or TGFα (recombinant human TGFα, 0.1-25 ng/ml, Calbiochem, San Diego, Calif.). The cells were then washed and incubated with fresh medium alone. Experiments were terminated at preselected times (for mRNA, 6 h and 12 h; for protein, 24 h). As controls, cells were incubated with medium alone for same time periods. […] NCI-H292 cells were incubated for 1 h with either neutrophils that had been incubated with TNFα (20 ng/ml) for 1 h and then washed with sterile PBS to avoid contamination with the supernatant (e.g., molecules released from neutrophils), or the NCI-H292 cells were incubated with supernatant only. […]

The test system of test [3] is NCI-H292 cells. The test is described as follows: Alcian blue/PAS staining of NCI-H292 cells for mucin glycoproteins. To be noted: TNFα 20 ng/ml; EGF, TGFα each 25 ng/ml. As to the method: Cell culture. A human pulmonary mucoepidermoid carcinoma cell line, NCI-H292 cells, were grown in RPMI11640 medium containing 10% fetal bovine serum, penicillin (100 U/ml), streptomycin (100 μg/ml) at 37° C. in a humidified 5% CO2 water-jacketed incubator. […] In inhibition studies with an EGF-R tyrosine kinase inhibitor, BIBX1522 (10 μg/ml, generously provided by Boehringer Ingelheim Inc., Ingelheim, Germany), cells were pretreated with BIBX1522 30 min before adding growth factors. After incubation, cells grown in a T-75 flask were used for total RNA extraction or protein extraction, and 8-chamber slides were used for Alcian blue/PAS-staining to visualize mucins.

For “TGFα: transforming growth factor alpha, EGF-R ligand (recombinant human; rat synthetic in vivo)”, the “MUC5AC mRNA expression” value in test [1] is recorded as “increased”. In test [2], the MUC5AC gene expression entry is given as “up-regulated”. The “PAS-positive staining on incubation with mediator” value in test [3] is reported as “increased PAS-positive staining”.
